Experimental data as given in patent publication US20020099241A1, “Alpha-sulfin-and alpha-sulfonamino acid amides” (priority 1998, published 2002).

Experiments:
Plasmopara viticola = experiment: D-1: Action against Plasmopara viticola on vines (residual-protective and residual-curative); assay type: in vivo; details: vine seedlings, spray mixture 0.02% active ingredient, evaluated 6 days after infection; protective/curative not distinguished
Protocol: D-1: Action Against Plasmopara viticola on Vines a) Residual-Protective Action
Vine seedlings are sprayed at the 4- to 5-leaf stage with a spray mixture (0.02% active ingredient) prepared from a wettable powder formulation of the test compound. After 24 hours, the treated plants are infected with a sporangia suspension of the fungus. Fungus infestation is evaluated after incubation for 6 days at 95-100% relative humidity and 20° C. […]
b) Residual-Curative Action
Vine seedlings are infected at the 4- to 5-leaf stage with a sporangia suspension of the fungus. After incubation for 24 hours in a humidity chamber at 95-100% relative humidity and 20° C., the infected plants are dried and sprayed with a spray mixture (0.02% active ingredient) prepared from a wettable powder formulation of the test compound. After the spray coating has dried, the treated plants are placed in the humidity chamber again. Fungus infestation is evaluated 6 days after infection.

Phytophthora [1] = experiment: D-2: Action against Phytophthora on tomato plants (residual-protective and systemic); assay type: in vivo; details: spray or soil watering 0.02% active ingredient, evaluated 4-5 days after infection, protective/systemic not distinguished
Protocol: D-2: Action Against Phytophthora on Tomato Plants
(§1) a) Residual-Protective Action
(§2) After a cultivation period of 3 weeks, tomato plants are sprayed with a spray mixture (0.02% active ingredient) prepared from a wettable powder formulation of the test compound. After 48 hours, the treated plants are infected with a sporangia suspension of the fungus. Fungus infestation is evaluated after incubation of the infected plants for 5 days at 90-100% relative humidity and 20° C.
as §2, with “watered” for “sprayed”, “ingredient based on the volume of the soil)” for “ingredient)”, “compound. […]” for “compound.”, “96” for “48”, “4” for “5”

Phytophthora [2] = experiment: D-3: Action against Phytophthora on potato plants (residual-protective and systemic); assay type: in vivo; details: potato plants (Bintje variety), spray or soil watering 0.02% active ingredient, evaluated 4 days after infection; protective/systemic not distinguished
Protocol: D-3: Action Against Phytophthora on Potato Plants
as §1
(§3) 2-3 week old potato plants (Bintje variety) are sprayed with a spray mixture (0.02% active ingredient) prepared from a wettable powder formulation of the test compound. After 48 hours, the treated plants are infected with a sporangia suspension of the fungus. Fungus infestation is evaluated after incubation of the infected plants for 4 days at 90-100% relative humidity and 20° C.
as §3, with “watered” for “sprayed”, “ingredient based on the volume of the soil)” for “ingredient)”, “compound. […]” for “compound.”, “C. Fungal infestation is effectively controlled with compounds of Tables 1 to 37.” for “C.”

| Structure (SMILES) | melting point [°C] | Fungus infestation (Plasmopara viticola) | Fungus infestation (Phytophthora [1]) | Fungus infestation (Phytophthora [2]) |
| --- | --- | --- | --- | --- |
| CCS(=O)(=O)N[C@H](C(=O)NCCc1ccc(OCCCc2cccc(C(F)(F)F)c2)c(OC)c1)C(C)C | 119 to 120 | – | – | – |
| COc1cc(CCNC(=O)[C@@H](NS(C)(=O)=O)C(C)C)ccc1OCCCc1ccc(Cl)cc1 | 128 to 130 | – | – | – |
| CCS(=O)(=O)N[C@H](C(=O)NCCc1ccc(OCC(C)c2ccc(F)cc2)c(OC)c1)C(C)C (stereo partly drawn) [Compound A1.01, (S)-2-Ethanesulfonylamino-N-(2-{4-[2-(4-fluoro-phenyl)-propoxy]-3-methoxy-phenyl}-ethyl)-3-methyl-butyramide] | 107 to 111 | completely inhibit fungal infestation | completely inhibit fungal infestation | completely inhibit fungal infestation |
